One assay has as its system DLD-1. Put plainly: Concentration required to inhibit nitric oxide synthesis in DLD-1 cells. The assay is classed as functional, cell-based. The settings on record: Homo sapiens.
The target in a further assay is T1, Nitric oxide synthase 3 (Homo sapiens, UniProt P29474).
T1 sequence (P29474 whole entry): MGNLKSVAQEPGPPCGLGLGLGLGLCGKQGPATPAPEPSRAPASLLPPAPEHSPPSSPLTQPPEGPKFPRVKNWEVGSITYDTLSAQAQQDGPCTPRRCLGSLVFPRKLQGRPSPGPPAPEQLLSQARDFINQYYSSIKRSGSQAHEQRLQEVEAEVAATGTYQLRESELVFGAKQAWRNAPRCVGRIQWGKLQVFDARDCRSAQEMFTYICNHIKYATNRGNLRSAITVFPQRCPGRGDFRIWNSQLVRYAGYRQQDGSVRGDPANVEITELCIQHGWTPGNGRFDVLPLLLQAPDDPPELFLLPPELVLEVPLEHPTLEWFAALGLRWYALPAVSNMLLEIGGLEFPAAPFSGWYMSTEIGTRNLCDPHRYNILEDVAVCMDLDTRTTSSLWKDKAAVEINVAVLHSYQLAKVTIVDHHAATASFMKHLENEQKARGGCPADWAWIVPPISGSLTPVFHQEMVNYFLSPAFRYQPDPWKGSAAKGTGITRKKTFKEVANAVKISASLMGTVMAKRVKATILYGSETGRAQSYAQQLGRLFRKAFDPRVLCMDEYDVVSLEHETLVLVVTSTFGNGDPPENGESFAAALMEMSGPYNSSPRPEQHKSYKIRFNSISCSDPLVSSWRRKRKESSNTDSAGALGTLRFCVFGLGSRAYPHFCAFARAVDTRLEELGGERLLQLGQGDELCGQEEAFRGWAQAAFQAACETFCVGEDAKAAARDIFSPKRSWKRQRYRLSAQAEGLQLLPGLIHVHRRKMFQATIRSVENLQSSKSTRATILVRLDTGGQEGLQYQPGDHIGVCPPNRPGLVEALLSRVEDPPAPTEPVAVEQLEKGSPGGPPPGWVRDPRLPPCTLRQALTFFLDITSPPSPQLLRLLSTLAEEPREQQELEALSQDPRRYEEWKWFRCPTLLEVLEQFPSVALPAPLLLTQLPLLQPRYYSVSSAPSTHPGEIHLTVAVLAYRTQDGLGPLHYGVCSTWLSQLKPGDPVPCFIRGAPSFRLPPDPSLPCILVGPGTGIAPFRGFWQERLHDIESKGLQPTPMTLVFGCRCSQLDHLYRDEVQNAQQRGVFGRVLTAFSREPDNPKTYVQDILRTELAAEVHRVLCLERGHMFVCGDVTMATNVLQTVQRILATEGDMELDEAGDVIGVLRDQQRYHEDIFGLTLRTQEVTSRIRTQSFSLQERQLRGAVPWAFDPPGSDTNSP
The assay is described as follows: Ability to inhibit the conversion of [3H]L-Arg to [3H]L-citrulline catalyzed by e-NOS from HUVEC cells. The assay is classed as functional, cell-based.

Another assay addresses Nitric oxide synthase 1 (Rattus norvegicus, UniProt P29476). The assay is described as follows: Ability to inhibit the conversion of [3H]-L-Arg to [3H]L-citrulline catalyzed by n-NOS from rat cerebellum. The assay is classed as functional, tissue-based.
Assay [1] concerns the target Nitric oxide synthase, inducible (Homo sapiens, UniProt P35228). The assay is described as follows: Ability to inhibit the conversion of [3H]L-Arg to [3H]L-citrulline catalyzed by i-NOS from human DLD-1 cells. The assay is classed as functional, cell-based.
A further assay relates to HUVEC. The assay is described as follows: Ability to inhibit the conversion of [3H]L-Arg to [3H]L-citrulline catalyzed by e-NOS from HUVEC cells at 100 uM concentration. The assay is classed as functional. The settings on record: Homo sapiens.
The test system of assay [2] is Rattus norvegicus. Put plainly: Dose required for half maximal increase in mean arterial blood pressure of 40 mmHg after 15 min in anaesthetised rats, as a measure of eNOS activity. The assay is classed as functional.
The subject of assay [3] is Rattus norvegicus. The assay is described as follows: In vivo inhibition of iNOS is determined from the inhibition of LPS-induced nitrite production measured in rat blood plasma at 3.2 umol/kg for 15 min. The assay is classed as functional. Particulars: 0.25 h.
In assay [4] the test system is Rattus norvegicus. Put plainly: In vivo inhibition of iNOS is determined from the inhibition of LPS-induced nitrite production measured in rat blood plasma at 800 umol/kg for 15 min. The assay is classed as functional. The settings on record: 0.25 h.

Each structure is given as a SMILES string.

For orientation: IC50 means the point on the concentration scale where inhibition reaches its midpoint. A low value points to inhibition by little substance. In general, inhibition refers to the change of the read-out against control, counted positive when it falls. Read a low inhibition as a weak effect. The term ED50 denotes the dose at which the effect has come halfway, by size or by number of responders. A lower ED50 goes with greater potency.

Sequence of Nitric oxide synthase 1 (P29476 whole entry): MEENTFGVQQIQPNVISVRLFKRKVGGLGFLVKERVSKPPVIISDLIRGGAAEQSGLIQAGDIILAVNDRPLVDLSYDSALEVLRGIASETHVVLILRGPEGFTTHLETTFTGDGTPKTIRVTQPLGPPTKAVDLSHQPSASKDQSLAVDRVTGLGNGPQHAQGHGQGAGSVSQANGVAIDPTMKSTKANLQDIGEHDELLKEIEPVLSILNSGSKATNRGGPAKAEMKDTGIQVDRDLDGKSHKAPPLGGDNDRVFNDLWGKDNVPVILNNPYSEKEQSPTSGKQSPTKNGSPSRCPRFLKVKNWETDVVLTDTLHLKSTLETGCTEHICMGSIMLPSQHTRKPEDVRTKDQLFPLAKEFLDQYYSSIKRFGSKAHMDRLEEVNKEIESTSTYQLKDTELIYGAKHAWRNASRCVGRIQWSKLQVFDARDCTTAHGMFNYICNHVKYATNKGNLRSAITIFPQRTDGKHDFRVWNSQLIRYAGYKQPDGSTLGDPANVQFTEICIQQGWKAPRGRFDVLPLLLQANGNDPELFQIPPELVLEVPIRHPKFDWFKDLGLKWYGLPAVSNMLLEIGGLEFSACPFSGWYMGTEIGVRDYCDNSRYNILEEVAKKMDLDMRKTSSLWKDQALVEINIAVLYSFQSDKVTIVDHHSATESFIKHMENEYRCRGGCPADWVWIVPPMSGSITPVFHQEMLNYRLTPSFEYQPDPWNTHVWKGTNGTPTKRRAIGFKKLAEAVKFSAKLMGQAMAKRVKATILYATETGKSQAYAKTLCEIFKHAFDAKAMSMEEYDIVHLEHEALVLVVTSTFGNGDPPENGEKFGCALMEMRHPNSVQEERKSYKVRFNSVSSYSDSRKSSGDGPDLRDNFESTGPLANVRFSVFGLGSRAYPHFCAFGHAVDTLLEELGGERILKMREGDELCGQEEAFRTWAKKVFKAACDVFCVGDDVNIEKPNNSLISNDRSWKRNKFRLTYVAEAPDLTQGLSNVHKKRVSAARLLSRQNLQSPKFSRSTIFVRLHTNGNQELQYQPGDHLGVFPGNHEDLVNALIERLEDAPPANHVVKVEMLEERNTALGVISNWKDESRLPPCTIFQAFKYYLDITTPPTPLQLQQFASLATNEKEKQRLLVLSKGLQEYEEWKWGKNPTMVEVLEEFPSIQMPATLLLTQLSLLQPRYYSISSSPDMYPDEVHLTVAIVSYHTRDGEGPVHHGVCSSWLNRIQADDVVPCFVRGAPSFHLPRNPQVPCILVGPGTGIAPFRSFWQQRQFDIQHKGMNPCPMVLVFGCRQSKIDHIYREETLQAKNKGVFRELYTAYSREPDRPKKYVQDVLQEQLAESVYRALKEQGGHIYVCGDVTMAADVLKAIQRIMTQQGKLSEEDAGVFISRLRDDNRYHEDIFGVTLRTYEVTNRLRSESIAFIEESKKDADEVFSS
Sequence of Nitric oxide synthase, inducible (P35228 whole entry): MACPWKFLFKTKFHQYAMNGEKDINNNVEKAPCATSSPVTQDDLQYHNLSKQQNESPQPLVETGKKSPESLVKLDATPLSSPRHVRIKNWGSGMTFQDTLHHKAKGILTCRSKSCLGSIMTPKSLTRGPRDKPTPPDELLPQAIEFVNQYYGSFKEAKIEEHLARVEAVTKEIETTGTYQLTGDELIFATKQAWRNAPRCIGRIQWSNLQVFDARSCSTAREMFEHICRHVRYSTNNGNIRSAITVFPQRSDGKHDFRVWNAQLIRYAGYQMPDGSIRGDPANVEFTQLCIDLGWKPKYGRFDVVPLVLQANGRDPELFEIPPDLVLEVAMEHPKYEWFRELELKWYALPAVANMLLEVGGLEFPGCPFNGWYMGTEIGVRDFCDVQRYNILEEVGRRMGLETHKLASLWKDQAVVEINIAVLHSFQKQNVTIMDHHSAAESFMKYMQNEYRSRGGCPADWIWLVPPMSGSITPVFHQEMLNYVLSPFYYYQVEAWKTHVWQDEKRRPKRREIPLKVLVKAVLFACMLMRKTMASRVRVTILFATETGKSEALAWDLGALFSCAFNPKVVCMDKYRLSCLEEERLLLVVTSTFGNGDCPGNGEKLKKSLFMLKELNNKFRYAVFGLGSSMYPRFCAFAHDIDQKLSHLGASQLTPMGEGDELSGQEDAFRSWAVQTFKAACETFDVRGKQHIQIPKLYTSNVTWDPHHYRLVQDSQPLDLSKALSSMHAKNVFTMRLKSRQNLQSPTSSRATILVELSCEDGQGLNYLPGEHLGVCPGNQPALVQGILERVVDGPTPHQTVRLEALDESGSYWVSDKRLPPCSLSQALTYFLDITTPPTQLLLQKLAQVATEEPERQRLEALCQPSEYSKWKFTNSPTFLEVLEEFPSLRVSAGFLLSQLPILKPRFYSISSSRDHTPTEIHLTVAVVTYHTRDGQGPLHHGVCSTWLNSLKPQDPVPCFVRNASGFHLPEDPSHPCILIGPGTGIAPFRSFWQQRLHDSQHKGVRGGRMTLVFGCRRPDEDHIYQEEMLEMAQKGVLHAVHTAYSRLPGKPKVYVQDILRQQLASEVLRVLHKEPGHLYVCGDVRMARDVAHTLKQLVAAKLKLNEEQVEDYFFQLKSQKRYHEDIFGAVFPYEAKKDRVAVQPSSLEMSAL

On to `NC1=NC(C2CC2)Cc2ccsc21` (stereo not given), for which the concentration for half-maximal inhibition (IC50) in the assay on DLD-1 was 3.6 µM; at Nitric oxide synthase 3 it was 0.05 µM; at Nitric oxide synthase 1, 0.011 µM; in assay [1], 0.051 µM.

Compound `NC1=NC(C#Cc2ccccc2)Cc2ccsc21` (stereo not given) had an inhibition at 100 µM in the assay with HUVEC below 25%. Further, the half-maximal inhibitory concentration (IC50) on Nitric oxide synthase 1 was 4.1 µM; in assay [1], 28 µM.

Turning to `C#CC1Cc2sccc2C(N)=N1` (stereo not given), the IC50 amounted to 15 µM in the assay with DLD-1, 0.12 µM at Nitric oxide synthase 3, 0.025 µM on Nitric oxide synthase 1 and 0.11 µM in assay [1].

In the case of `CC#CC1Cc2ccsc2C(N)=N1` (stereo not given), the IC50 with DLD-1 was 34 µM; at Nitric oxide synthase 3, 5 µM; against Nitric oxide synthase 1, 0.08 µM; in assay [1] it was 0.15 µM.

Regarding `NC1=NC(c2cccs2)Cc2ccsc21` (stereo not given), the IC50 with DLD-1 is 9.2 µM; against Nitric oxide synthase 3 it was 1.9 µM; on Nitric oxide synthase 1 it was 0.05 µM; in assay [1], 0.15 µM.

`NC1=NCCc2sccc21`: the IC50 on Nitric oxide synthase 1 came to 0.1 µM; in assay [1], 1.6 µM.

For the compound `NC1=NC(c2ccccc2)Cc2sccc21` (stereo not given), the IC50 at Nitric oxide synthase 3 was found to be 9.5 µM; at Nitric oxide synthase 1, 0.74 µM; in assay [1] it was 2.7 µM.

For the compound `NC1=NCCc2ccsc21`, the IC50 was found to be 0.28 µM against Nitric oxide synthase 3, 0.55 µM on Nitric oxide synthase 1 and 0.73 µM in assay [1].

As for `NC1=NC(C2CC2)Cc2sccc21` (stereo not given), the IC50 with DLD-1 worked out at 8.7 µM; against Nitric oxide synthase 3, 0.75 µM; on Nitric oxide synthase 1, 0.018 µM; in assay [1], 0.19 µM.

Regarding `C#CC1Cc2ccsc2C(N)=N1` (stereo not given), the IC50 in the assay with DLD-1 turned out to be 5.8 µM; against Nitric oxide synthase 3, 0.08 µM; on Nitric oxide synthase 1, 0.006 µM; in assay [1], 0.04 µM.

As to `NC1=NC(c2cccnc2)Cc2ccsc21` (stereo not given), the values for the concentration for half-maximal inhibition (IC50) (on Nitric oxide synthase 1; in assay [1]) were 0.26 µM and 2.8 µM, respectively.

Take `NC1=NC(c2ccco2)Cc2ccsc21` (stereo not given): the IC50 in the assay with DLD-1 came to 2.2 µM; against Nitric oxide synthase 3, 0.92 µM; against Nitric oxide synthase 1, 0.04 µM; in assay [1], 0.089 µM. Besides, the Dose in the assay on Rattus norvegicus [2] was determined as 0.4 µM/kg. This compound displayed a 50% effective dose (ED50) in the assay on Rattus norvegicus [3] of 0.4 µmol/kg.

With `C#CC1Cc2cc(C)sc2C(N)=N1` (stereo not given), the concentration for half-maximal inhibition (IC50) against Nitric oxide synthase 3 is 10 µM; against Nitric oxide synthase 1, 0.91 µM; in assay [1], 3.5 µM.

On to `NC1=NC(c2ccccc2)Cc2ccsc21` (stereo not given), for which the half-maximal inhibitory concentration (IC50) is 4 µM at Nitric oxide synthase 3, 0.14 µM on Nitric oxide synthase 1 and 8.3 µM in assay [1].

`CNC(=N)NCCCC(N)C(=O)O` (single isomer, unassigned) [TILARGININE] registered an IC50 in the assay with DLD-1 of 170 µM. This compound gave a Dose in the assay with Rattus norvegicus [2] of 100 µM/kg. The compound further displayed an ED50 with Rattus norvegicus [4] of 100 µmol/kg.

Consider `CC(C)(C)C#CC1Cc2ccsc2C(N)=N1` (stereo not given), for which the inhibition at 100 µM in the assay on HUVEC is below 25%. The figures for the concentration for half-maximal inhibition (IC50) (on Nitric oxide synthase 1; in assay [1]) were 10 µM and 3.6 µM, respectively.

For the origin of these results see ChEMBL document CHEMBL1134021, “Thienopyridines: nitric oxide synthase inhibitors with potent in vivo activity” (Bioorg Med Chem Lett, 2001).
